Assay results as given in ChEMBL document CHEMBL5050861 (2021).
≈ marks a conversion by molar mass, not a printed value.

Tests used:
[1] = Inhibition of recombinant mouse GALK1 using ATP as substrate incubated for 1 hr and measured by Kinase-Glo assay
[2] = Kinetic aqueous solubility of the compound; assay type: physicochemical; details: buffer; read-out: Kinetic_solubility
[3] = Stability of compound in rat microsomes assessed as half-life; assay type: ADME, Microsome

Compound | IC50 ([1]; read-out: IC50) [µM] | solubility kinetic [2] [µg/mL] | half-life [3] [min] | IC50 [1]
COc1ccc(Cl)c(C2N=C(Nc3nc4ccccc4o3)NC(C)=C2C(=O)Nc2nncs2)c1 (configuration not stated) | 17.2 | < 1 | > 30 | –
COc1ccc([C@H]2N=C(Nc3nc4ccc(F)cc4o3)NC(C)=C2C(=O)Nc2cc(C(=O)O)ccn2)c(Cl)c1 | 19.3 | – | – | –
CC1=C(C(=O)Nc2ccc(CO)cn2)C(c2ccccc2Cl)N=C(Nc2nc3ccc(F)cc3o2)N1 (configuration not stated) | 19.3 | < 1 | > 30 | –
CC1=C(C(=O)Nc2ccc(N(C)C)cc2)C(c2ccccc2Cl)N=C(Nc2nc3ccccc3o2)N1 (configuration not stated) | 13.7 | < 1 | 11.5 | –
CC1=C(C(=O)NCc2cccc(CO)c2)C(c2ccccc2Cl)N=C(Nc2nc3ccccc3o2)N1 (configuration not stated) | 12.2 | < 1 | 6.57 | –
COC(=O)c1ccc(NC(=O)C2=C(C)NC(Nc3nc4ccccc4o3)=NC2c2ccccc2Cl)cn1 (configuration not stated) | 6.85 | < 1 | 4.68 | –
CC1=C(C(=O)NCc2cnn(C)c2)C(c2ccccc2Cl)N=C(Nc2nc3ccccc3o2)N1 (configuration not stated) | 12.2 | 24.2 (≈ 50.8 µM) | 15.7 | –
CC1=C(C(=O)Nc2cccc(C(N)=O)c2)C(c2ccccc2Cl)N=C(Nc2nc3ccccc3o2)N1 (configuration not stated) | 17.2 | < 1 | > 30 | –
CC1=C(C(=O)Nc2ccc(C(=O)N3CCOCC3)cc2)C(c2ccccc2Cl)N=C(Nc2nc3ccccc3o2)N1 (configuration not stated) | 21.7 | < 1 | > 30 | –
CC1=C(C(=O)NCc2cnn(C(C)(C)C)c2)C(c2ccc(C)cc2Cl)N=C(Nc2nc3ccc(F)c(N)c3o2)N1 (configuration not stated) | 4.32 | < 1 | 14.4 | –
CC1=C(C(=O)Nc2nncs2)C(c2cc(Cl)ccc2Cl)N=C(Nc2nc3ccccc3o2)N1 (configuration not stated) | 10.9 | < 1 | > 30 | –
CC1=C(C(=O)Nc2cc(C(=O)O)ccc2F)C(c2ccccc2Cl)N=C(Nc2nc3ccccc3o2)N1 (configuration not stated) | 10.9 | 25.4 (≈ 48.9 µM) | > 30 | –
CC1=C(C(=O)Nc2cc(C(=O)O)ccn2)C(c2ccc(-c3ccc(C(F)(F)F)cc3)cc2Cl)N=C(Nc2nc3ccc(F)cc3o2)N1 (configuration not stated) | 21.7 | 8.1 (≈ 12.2 µM) | > 30 | –
COCCNC(=O)C1CC(=O)C2=C(C1)NC(Nc1nc3ccccc3o1)=NC2c1ccccc1Cl (configuration not stated) | 4.85 | 4.23 (≈ 8.56 µM) | 10.2 | –
O/N=C1\CCCC2=C1C(c1ccccc1Cl)N=C(Nc1nc3ccccc3o1)N2 (configuration not stated) | 10.9 | < 1 | 5.48 | –
CC1=C(C(=O)Nc2ccc(F)cc2)C(c2ccccc2Cl)N=C(Nc2nc3ccccc3o2)N1 (configuration not stated) | 12.2 | < 1 | > 30 | –
CC1=C(C(=O)Nc2cc(C(=O)O)ccn2)C(c2cc(C(=O)O)ccc2Cl)N=C(Nc2nc3ccc(F)cc3o2)N1 (configuration not stated) | 12.2 | > 83 | > 30 | –
COC(=O)c1cc(NC(=O)C2=C(C)NC(Nc3nc4ccccc4o3)=NC2c2ccccc2Cl)ccn1 (configuration not stated) | 10.9 | < 1 | > 30 | –
CC1=C(C(=O)Nc2cc(CO)ccn2)C(c2ccccc2Cl)N=C(Nc2nc3ccc(F)cc3o2)N1 (configuration not stated) | 10.9 | < 1 | > 30 | –
CC1=C(C(=O)Nc2ccc(-n3cncn3)cc2)C(c2ccccc2Cl)N=C(Nc2nc3ccccc3o2)N1 (configuration not stated) | 34.4 | – | – | –
CC1=C(C(=O)Nc2cc(CO)ccn2)C(c2ccccc2Cl)N=C(Nc2nc3ccccc3o2)N1 (configuration not stated) | 9.68 | < 1 | > 30 | –

Compound | IC50 ([1]; read-out: IC50) [µM] | solubility kinetic [2] [µg/mL] | half-life [3] [min] | IC50 [1]
CC1=C(C(=O)Nc2cc(C(=O)O)ccn2)C(c2ccc(C)cc2Cl)N=C(Nc2nc3cccc(N)c3o2)N1 (racemic) | 1.72 | > 78 | > 30 | –
COc1ccc(C2N=C(Nc3nc4ccccc4o3)NC(C)=C2C(=O)Nc2nncs2)c(Cl)c1 (configuration not stated) | 5.44 | < 1 | > 30 | –
COC(=O)c1ccc(CNC(=O)C2=C(C)NC(Nc3nc4ccccc4o3)=NC2c2ccccc2Cl)cc1 (configuration not stated) | 8.63 | < 1 | 8.49 | –
CC1=C(C(=O)Nc2ccccc2F)C(c2ccccc2Cl)N=C(Nc2nc3ccccc3o2)N1 (configuration not stated) | 9.68 | < 1 | > 30 | –
CC1=C(C(=O)Nc2ccccn2)C(c2ccccc2Cl)N=C(Nc2nc3ccc(F)cc3o2)N1 (configuration not stated) | 10.9 | < 1 | > 30 | –
CN(C)C(=O)C1CC(=O)C2=C(C1)NC(Nc1nc3ccccc3o1)=NC2c1ccccc1Cl (configuration not stated) | 4.32 | 10.8 (≈ 23.4 µM) | 20.8 | –
CC1=C(C(=O)Nc2cc(N(C)C)ccn2)C(c2ccc(C)cc2Cl)N=C(Nc2nc3cccc(N)c3o2)N1 (configuration not stated) | 15.3 | 4.6 (≈ 8.66 µM) | 11.7 | –
COC(=O)c1ccnc(NC(=O)C2=C(C)NC(Nc3nc4ccccc4o3)=NC2c2ccccc2Cl)c1 (configuration not stated) | 5.44 | < 1 | 18.4 | –
CC1=C(C(=O)Nc2ccc(CO)nc2)C(c2ccccc2Cl)N=C(Nc2nc3ccccc3o2)N1 (configuration not stated) | 7.69 | < 1 | > 30 | –
CC1=C(C(=O)Nc2nncs2)C(c2nn(C)cc2Cl)N=C(Nc2nc3ccccc3o2)N1 (configuration not stated) | 17.2 | 12.8 (≈ 27.2 µM) | > 30 | –
CC1=C(C(=O)Nc2nncs2)C(c2c(Br)cnn2C)N=C(Nc2nc3ccccc3o2)N1 (configuration not stated) | – | 38.7 (≈ 75.2 µM) | > 30 | Not Active
CC1=C(C(=O)NCc2cnn(C)c2)C(c2ccc(F)cc2Cl)N=C(Nc2nc3cccc(N)c3o2)N1 (configuration not stated) | 6.85 | 49.6 (≈ 97.5 µM) | 29.6 | –
CNC(=O)C1CC(=O)C2=C(C1)NC(Nc1nc3ccccc3o1)=NC2c1ccccc1Cl (configuration not stated) | 6.85 | < 1 | > 30 | –
CCn1cc(CNC(=O)C2=C(C)NC(Nc3nc4cccc(N)c4o3)=NC2c2ccc(F)cc2Cl)cn1 (configuration not stated) | 7.69 | – | 18.8 | –
CC1=C(C(=O)Nc2nncs2)C(c2ccccc2C)N=C(Nc2nc3ccccc3o2)N1 (configuration not stated) | 21.7 | < 1 | > 30 | –
CC1=C(C(=O)Nc2cccnc2)C(c2ccccc2Cl)N=C(Nc2nc3ccccc3o2)N1 (configuration not stated) | 12.2 | < 1 | 20 | –
CC1=C(C(=O)Nc2cc(C(=O)O)ccc2C)C(c2ccccc2Cl)N=C(Nc2nc3ccc(F)cc3o2)N1 (configuration not stated) | 17.2 | – | – | –
CC1=C(C(=O)Nc2cccc(F)c2)C(c2ccccc2Cl)N=C(Nc2nc3ccccc3o2)N1 (configuration not stated) | 12.2 | < 1 | > 30 | –
CC1=C(C(=O)Nc2nncs2)C(c2ncccc2Br)N=C(Nc2nc3ccccc3o2)N1 (configuration not stated) | 6.85 | 3 (≈ 5.87 µM) | > 30 | –
CC1=C(C(=O)Nc2nnc(-c3ccncc3)s2)C(c2ccccc2Cl)N=C(Nc2nc3ccccc3o2)N1 (configuration not stated) | 19.3 | < 1 | > 30 | –
CC1=C(C(=O)Nc2nncs2)C(c2ccccc2Br)N=C(Nc2nc3ccccc3o2)N1 (configuration not stated) | 9.68 | < 1 | > 30 | –

Compound | IC50 ([1]; read-out: IC50) [µM] | solubility kinetic [2] [µg/mL] | half-life [3] [min] | IC50 [1]
COC(=O)c1cccc(NC(=O)C2=C(C)NC(Nc3nc4ccccc4o3)=NC2c2ccccc2Cl)n1 (configuration not stated) | 12.2 | < 1 | > 30 | –
CC1=C(C(=O)NCc2cnn(Cc3ccccc3)c2)C(c2ccc(C)cc2Cl)N=C(Nc2nc3cccc(N)c3o2)N1 (configuration not stated) | 5.44 | < 1 | 6.73 | –
CC1=C(C(=O)NCc2cnn(C)c2C)C(c2ccc(C)cc2Cl)N=C(Nc2nc3ccc(F)cc3o2)N1 (configuration not stated) | 3.43 | < 1 | 2.99 | –
CC1=C(C(=O)NCc2cnn(Cc3ccccc3)c2)C(c2ccc(C)cc2Cl)N=C(Nc2nc3ccc(F)cc3o2)N1 (configuration not stated) | 5.44 | < 1 | 2.74 | –
CC1=C(C(=O)Nc2cc(C(=O)O)ccn2)C(c2ccc(C)cc2Cl)N=C(Nc2ncc(-c3ccccc3)o2)N1 (configuration not stated) | – | 42.2 (≈ 77.7 µM) | > 30 | –
COC(=O)Cc1nnc(NC(=O)C2=C(C)NC(Nc3nc4ccccc4o3)=NC2c2ccccc2Cl)s1 (configuration not stated) | – | < 1 | 8.09 | –
CCn1nc(C)c(CNC(=O)C2=C(C)NC(Nc3nc4ccc(F)c(N)c4o3)=NC2c2ccc(C)cc2Cl)c1F (configuration not stated) | 2.17 | 1.53 (≈ 2.69 µM) | 3.55 | –
CC1=C(C(=O)Nc2ccc(CO)cc2)C(c2ccccc2Cl)N=C(Nc2nc3ccccc3o2)N1 (configuration not stated) | – | < 1 | > 30 | –
CC1=C(C(=O)Nc2cc(C(=O)O)ccc2F)C(c2ccccc2Cl)N=C(Nc2nc3ccc(F)cc3o2)N1 (configuration not stated) | 6.85 | 35.7 (≈ 66.4 µM) | > 30 | –
CC1=C(C(=O)Nc2cncc(C(=O)O)c2)C(c2ccccc2Cl)N=C(Nc2nc3ccccc3o2)N1 (configuration not stated) | – | 60.3 (≈ 120 µM) | > 30 | –
CC1=C(C(=O)NCc2cn(C)cn2)C(c2ccccc2Cl)N=C(Nc2nc3ccc(F)cc3o2)N1 (configuration not stated) | 19.3 | – | – | –
COc1ccc([C@@H]2N=C(Nc3nc4ccc(F)cc4o3)NC(C)=C2C(=O)Nc2cc(C(=O)O)ccn2)c(Cl)c1 | 1.99 | – | – | –
CCn1cc(CNC(=O)C2=C(C)NC(Nc3nc4ccc(F)c(N)c4o3)=N[C@H]2c2ccc(C)cc2Cl)cn1 | 0.97 | 22.1 (≈ 41.1 µM) | – | –
CC1=C(C(=O)Nc2nnc(-c3cccnc3)s2)C(c2ccccc2Cl)N=C(Nc2nc3cc(N)ccc3o2)N1 (configuration not stated) | – | 1.8 (≈ 3.23 µM) | > 30 | –
COC(=O)c1cncc(NC(=O)C2=C(C)NC(Nc3nc4ccccc4o3)=NC2c2ccccc2Cl)c1 (configuration not stated) | – | < 1 | > 30 | –
CC1=C(C(=O)Nc2cccc(CCO)c2)C(c2ccccc2Cl)N=C(Nc2nc3ccccc3o2)N1 (configuration not stated) | – | – | 26.6 | –
CC1=C(C(=O)Nc2nc(C(=O)O)cs2)C(c2ccccc2Cl)N=C(Nc2nc3ccccc3o2)N1 (configuration not stated) | 19.3 | – | – | –
CC1=C(C(=O)Nc2ccc(-c3cn[nH]c3)cc2)C(c2ccccc2Cl)N=C(Nc2nc3ccccc3o2)N1 (configuration not stated) | 12.2 | – | – | –
CC1=C(C(=O)Nc2ccc(C(N)=O)cn2)C(c2ccccc2Cl)N=C(Nc2nc3ccc(F)cc3o2)N1 (configuration not stated) | 6.85 | – | – | –
